Assay results published in patent publication US9556153B1, “JAK1 inhibitors” (Eli Lilly and Company, priority 2015, dated 2017).

Tests used:
JAK1 = JAK1 (Homo sapiens, UniProt P23458); assay: Human whole blood assay: pSTAT3 (JAK1) in lymphocytes; format: cell-based; set-up: endogenous in cells; host or cells: human whole blood, CD4+ lymphocytes; details: HWB
Description: Human Whole Blood Assays: Determination of pSTAT3 (JAK1) and pSTAT5 (JAK2) in Lymphocytes and Monocytes
Human whole blood (HWB) assays were developed and validated to determine the JAK1 and JAK2 selectivity of test compounds.
Dilute the test compounds, 10 points, (1:3) in DMSO 100% and a step down in PBS+0.1% BSA. Use tofacitinib as a reference compound in each plate, as well as a maximum signal (stimulated wells) and a minimum signal (no stimulated wells) in order to normalize data. Obtain a pool of HWB from 4 different healthy donors. Plate the blood in a 96 well plate using a Tecan Evo 96w and incubate with test compounds for 1 h at RT. After this time of incubation, stimulate HWB with both IL6 (206-IL, R&D System) and GM-CSF (PHC2015, Life Technologies) for 15 more minutes. […]
The final concentrations in the assay are the following: 100 μM for compounds, 50 μM for tofacitinib, 0.1 μg/mL IL6, 0.038 μg/mL GM-CSF and 1% DMSO. […] Incubate the antibodies for 1 h in dark at RT, then wash cells 2× and read on Cytometer Macsquant (Miltenyi Biotec). Gate the data on CD4+(lymphocytes) and CD4Low CD33Hi (monocytes), to measure the fluorescence from cells expressing pSTAT3 and pSTAT5 respectively. Analyze the data using FlowJo v_10 and the normalize the median of fluorescence versus maximum and minimum signal to determine the IC50s. […]

HCC827 xenograft tumor = assay: Efficacy Study in HCC827 Xenograft Tumor Model; format: in vivo, mouse; details: oral gavage, 28 days, HCC827 xenograft mice
Method: Efficacy Study in HCC827 Xenograft Tumor Model
The purpose of this assay is to measure the ability of compounds to inhibit tumor growth in the HCC827 xenograft mouse model. Grow HCC827 cells (ATCC# CRL-2868, Lot#59392891) according to ATCC specifications at the lowest possible passage number available. Culture cells and maintain in RPMI-1640 supplemented with 10% FBS and incubate at 37° C. in 5% CO2. Harvest cells from flasks using TryPLE, rinse twice in DPBS, resuspend in HBSS, and mix with BD Biosciences basement membrane matrix (MATRIGEL®) to cell suspension to achieve a 1:1 cell/matrix ratio yielding an inoculation volume of 0.2 ml cell/matrix suspension containing 5e^6 cells. Maintain cell suspensions on ice throughout the inoculation procedure and start implantations within one hour after cell culture harvest. Administer implantations subcutaneously in the right rear flank of female CB17 SCID mice obtained from Harlan (18-20 g). Feed mice Harlan Teklad Protein Extruded 2920X ad libitum and provide water with the rack watering system. Allow the implanted tumor cells to grow as a solid tumor and measure twice a week along with body weight beginning the seventh day after implantation. Determine tumor volumes using the calculation: 0.536*L*W^2. After tumor volume reaches approximately 150-200 mm^3, randomize animals and place into groups containing 5-8 animals each. Formulate the compounds in 1% HEC vehicle containing 0.25% Tween 80 and 0.05% antifoam with 1.1 molar equivalent of methanesulfonic acid to form an in situ salt (1.1 mL of 1N methanesulfonic acid per (insert molecular weight) mg of compound). Store test compound at RT. Formulate compounds once per week, and store at RT. […] Calculate doses based on the most recent group mean body weight. Administer compounds by oral gavage for 28 days either BID or QD depending on dosage.

JAK1, sequence (P23458 whole entry): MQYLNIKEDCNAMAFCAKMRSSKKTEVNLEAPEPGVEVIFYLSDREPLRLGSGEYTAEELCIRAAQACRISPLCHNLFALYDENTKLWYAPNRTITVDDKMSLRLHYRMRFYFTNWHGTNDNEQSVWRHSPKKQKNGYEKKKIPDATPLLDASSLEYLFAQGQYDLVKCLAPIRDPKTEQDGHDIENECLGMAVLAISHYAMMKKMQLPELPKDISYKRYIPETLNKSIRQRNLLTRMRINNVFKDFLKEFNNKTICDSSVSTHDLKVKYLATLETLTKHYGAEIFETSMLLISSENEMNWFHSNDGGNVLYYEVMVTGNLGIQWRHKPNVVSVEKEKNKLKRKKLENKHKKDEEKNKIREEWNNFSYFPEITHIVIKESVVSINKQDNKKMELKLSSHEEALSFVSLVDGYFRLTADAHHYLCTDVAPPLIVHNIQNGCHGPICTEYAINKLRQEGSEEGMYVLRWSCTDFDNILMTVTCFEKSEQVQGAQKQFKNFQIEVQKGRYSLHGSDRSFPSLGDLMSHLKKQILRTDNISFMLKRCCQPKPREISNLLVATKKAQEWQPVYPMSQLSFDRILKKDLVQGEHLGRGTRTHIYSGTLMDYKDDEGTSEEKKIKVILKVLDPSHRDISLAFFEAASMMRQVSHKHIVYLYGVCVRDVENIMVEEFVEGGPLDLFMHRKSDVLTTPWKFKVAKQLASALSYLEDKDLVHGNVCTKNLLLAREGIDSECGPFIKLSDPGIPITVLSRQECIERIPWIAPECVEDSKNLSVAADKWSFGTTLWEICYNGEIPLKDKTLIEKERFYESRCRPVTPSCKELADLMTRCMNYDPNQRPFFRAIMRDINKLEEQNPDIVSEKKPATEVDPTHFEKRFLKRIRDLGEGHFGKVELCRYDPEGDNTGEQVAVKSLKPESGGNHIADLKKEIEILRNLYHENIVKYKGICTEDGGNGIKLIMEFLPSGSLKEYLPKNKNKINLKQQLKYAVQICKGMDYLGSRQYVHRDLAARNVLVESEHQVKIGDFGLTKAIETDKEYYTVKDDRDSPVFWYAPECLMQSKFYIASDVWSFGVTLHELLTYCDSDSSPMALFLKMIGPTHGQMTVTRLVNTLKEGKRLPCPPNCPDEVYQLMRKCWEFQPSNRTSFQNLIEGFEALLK

**Q.** Which results are given for `Cc1cc(Nc2cc(O[C@H]3CC[C@@H](NC[C@@H](O)C(F)(F)F)CC3)cc3c2ncn3C)nn1C` [Example 1, (2R)-3-{[cis-4-({4-[(1,5-Dimethyl-1H-pyrazol-3-yl)amino]-1-methyl-1H-benzimidazol-6-yl}oxy)cyclohexyl]amino}-1,1,1-trifluoropropan-2-ol]?
**A.** IC50 (JAK1; IL6 stimulated, CD4+ lymphocytes, n=3): 2.4 ± 0.64 µM; potency for JAK1 over JAK2 in a human whole blood assay (JAK1; JAK1 over JAK2): approximately 5 ×; tumor growth inhibition (HCC827 xenograft tumor; 30 mg/kg BID): 31%; tumor regression (HCC827 xenograft tumor; 60 mg/kg BID): 22%; tumor regression (HCC827 xenograft tumor; 120 mg/kg QD): 22%
